In series [1] the target is Carbonic anhydrase 2 (Homo sapiens, UniProt P00918).
Description: In vitro inhibition of human carbonic anhydrase II (0.1 nM).
The nature of series [2]: Solubility. The following applies: read-out: S. It counts as physicochemical.
Series [3] is described as follows: Extent of reaction with 20 equiv of reduced glutathione (GSH) in 20 hours at pH 7.4 and 37 degree C.
A short description of series [4]: Extent of reaction with 5 equiv of reduced glutathione (GSH) between 16 and 22 hours at pH 7.4 and 37 degree C.
For series [5], the system named is Oryctolagus cuniculus. The series is described as follows: METD(minimum effective topical dose of the compound) for ocular hypotensive activity in alpha-CT-rabbits. It counts as functional, Eye.
For series [6], the species on record is Cavia porcellus. In words: Number of animals showing dermal sensitization/ number of animals tested in Magnusson-Kligman assay; 15/40. It counts as functional.
Series [7] deals with Oryctolagus cuniculus. In words: In vivo intraocular pressure reduction was determined in rabbits after effective topical dose (duration expressed as number of time points, P<=0.05). It counts as functional, Eye.
The species named for series [8] is Cavia porcellus. The series is described as follows: Number of animals showing dermal sensitization/ number of animals tested in Magnusson-Kligman assay. It counts as functional.
The species entered for series [9] is Cavia porcellus. In words: Number of animals showing dermal sensitization/ number of animals tested in Magnusson-Kligman assay; 8/19. It counts as functional.

Each structure is given as a SMILES string. pIC50: −log10 of the molar value. ≈ marks a conversion by molar mass, not a printed value.

What is called pIC50 is the negative decadic logarithm of the IC50, by convention in mol/L. Low values mean a high IC50, high ones a low IC50.

`COc1ccc2cc(S(N)(=O)=O)n(C)c2c1`: the negative-log IC50 (pIC50) in series [1] was 6.96. Besides, the solubility in series [2] turned out to be 40 µg/mL (≈ 166 µM). In [3], the GSH is 37%.
In series [1], `COc1ccc2cc(S(N)(=O)=O)oc2c1` had a pIC50 of 7.82.
With `NS(=O)(=O)c1cc2cc(O)ccc2o1`, the results for the GSH in [4] and in [3] were 4% and 9%, respectively. For the same molecule, the negative logarithm of the IC50 (pIC50) in [1] was 8.19. Further, in series [2], the solubility was 2100 µg/mL (≈ 9850 µM). The same molecule registered an METD in [5] of 0.1%. The No. of animals in series [6] turned out to be 15. Further, the “Max IOP reduction” value in series [7] is given as -6 mmHg.
In [1], `Cc1c(S(N)(=O)=O)oc2cc(O)ccc12` showed a pIC50 of 6.68. Besides, the GSH in series [3] came out at 47%.
With `COc1ccc2cc(S(N)(=O)=O)n(S(=O)(=O)c3ccccc3)c2c1`, the negative-log IC50 (pIC50) in series [1] is < 5.00.
`CC(=O)Oc1ccc2cc(S(N)(=O)=O)sc2c1` displayed an METD in series [5] of 0.1%. In addition, the “Max IOP reduction” value in [7] is -5.3 mmHg.
As to `COc1ccc2[nH]c(S(N)(=O)=O)cc2c1`, the pIC50 in series [1] was 7.80. The solubility in series [2] was 150 µg/mL (≈ 663 µM).
Regarding `NS(=O)(=O)c1cc2ccc(O)cc2[nH]1`, the GSH in series [4] was found to be 2.5%; in [3], 17%. Moreover, in series [1], the pIC50 was 7.52. The solubility in series [2] was 4800 µg/mL (≈ 22600 µM). In series [5], this molecule came in with an METD of 0.5%. Moreover, the “Max IOP reduction” value in series [7] is on record as -5 mmHg.
Consider `NS(=O)(=O)c1cc2ccccc2o1`, for which the GSH in series [4] turned out to be 0%; in series [3], 10%. In addition, the negative-log IC50 (pIC50) in series [1] was 8.10. In addition, in series [2], the solubility came to 480 µg/mL (≈ 2430 µM).
The molecule `NS(=O)(=O)c1cc2cc3c(cc2[nH]1)OCO3` gave a negative logarithm of the IC50 (pIC50) in series [1] of 7.60. For the same molecule, in [2], the solubility was determined as 50 µg/mL (≈ 208 µM).
On to `Nc1ccc2oc(S(N)(=O)=O)cc2c1`, for which the GSH in series [4] is 11%. Moreover, the pIC50 in series [1] is 8.05. Besides, the solubility in series [2] came out at 280 µg/mL (≈ 1320 µM). This molecule also returned an METD in series [5] of 0.5%. In addition, the “Max IOP reduction” value in series [7] is reported as -6 mmHg.
The molecule `CC(=O)Oc1ccc2oc(S(N)(=O)=O)cc2c1` showed a pIC50 in series [1] of 8.19. Further, the solubility in series [2] stood at 190 µg/mL (≈ 744 µM). Moreover, in series [7], the Max IOP reduction was -5.7 mmHg.
With `CC(C)(C)C(=O)Oc1ccc2oc(S(N)(=O)=O)cc2c1`, the GSH in series [4] was determined as 3.4%. This molecule had a pIC50 in series [1] of 8.52.
For `NS(=O)(=O)c1cc2cc(O)ccc2[nH]1`, the GSH amounted to 0.7% in series [4] and 13% in series [3]. For the same molecule, the negative-log IC50 (pIC50) in [1] was 7.66. Moreover, the solubility in series [2] worked out at 1900 µg/mL (≈ 8950 µM). In addition, the METD in [5] amounted to 0.1%. Besides, the “Max IOP reduction” value in series [7] is given as -7.5 mmHg. Besides, the No. of animals in series [8] amounted to 19.
Turning to `CC(C)(C)C(=O)Oc1ccc2cc(S(N)(=O)=O)oc2c1`, the METD in series [5] is 0.5%. For the same molecule, the “Max IOP reduction” value in [7] is on record as -5.3 mmHg.
Regarding `NS(=O)(=O)c1cc2ccc(O)cc2s1`, the GSH in [4] stood at 0%; in [3], 2.9%. For the same molecule, the solubility in [2] was determined as 430 µg/mL (≈ 1880 µM). Also, the METD in series [5] is 0.05%. Moreover, in series [7], the “Max IOP reduction” value is recorded as -5.5 mmHg. Further, in [8], the No. of animals is reported as 0.
`NS(=O)(=O)c1cc2ccccc2[nH]1`: the GSH in series [4] turned out to be 0%. This molecule had a negative logarithm of the IC50 (pIC50) in series [1] of 7.35. The solubility in series [2] came out at 850 µg/mL (≈ 4330 µM).
Take `COc1ccc2cc(S(N)(=O)=O)[nH]c2c1`: in series [1], the pIC50 was 7.22. In addition, the solubility in series [2] was 520 µg/mL (≈ 2300 µM).
For the molecule `Nc1ccc2cc(S(N)(=O)=O)oc2c1`, the GSH in series [4] was 11%; in series [3] it was 17%. In series [1], this molecule showed a negative logarithm of the IC50 (pIC50) of 7.60. Further, the solubility in series [2] was 80 µg/mL (≈ 377 µM).
Regarding `CC(=O)Oc1ccc2cc(S(N)(=O)=O)oc2c1`, the negative logarithm of the IC50 (pIC50) in [1] was 8.26. Moreover, the METD in series [5] is given as 0.5%. In addition, in [7], the “Max IOP reduction” value is recorded as -8.8 mmHg.
As for `CC(=O)Oc1ccc2cc(S(N)(=O)=O)[nH]c2c1`, in series [1], the pIC50 was 7.49.
`COc1ccc2oc(S(N)(=O)=O)cc2c1`: the pIC50 in series [1] is 8.29. Besides, the solubility in series [2] was found to be 540 µg/mL (≈ 2380 µM). Further, the GSH in [3] amounted to 10%.
Consider `CC(=O)Oc1ccc2[nH]c(S(N)(=O)=O)cc2c1`, for which the pIC50 in series [1] was 7.96. Also, the solubility in series [2] came to 220 µg/mL (≈ 865 µM).
Regarding `NS(=O)(=O)c1cc2ccc(O)cc2o1`, the results for the GSH in [4] and in [3] were 4.9% and 23%, respectively. The negative logarithm of the IC50 (pIC50) in series [1] was 7.96. The solubility in series [2] stood at 2800 µg/mL (≈ 13100 µM). Moreover, in [5], the METD is reported as 0.5%. For the same molecule, the “Max IOP reduction” value in series [7] is listed as -5.2 mmHg. Also, the No. of animals in series [9] is recorded as 8.

The values are drawn from ChEMBL document CHEMBL1124833, “Topically active carbonic anhydrase inhibitors. 3. Benzofuran- and indole-2-sulfonamides” (J Med Chem, 1990).
